pKi: −log10 of the molar value. Where only a bound is given, the exact number is not on record here.

Data on 22 molecules can be found in patent publication US8791148B2, “Substituted benzimidazolone derivatives, medicaments comprising them and their use” (AbbVie Deutschland GmbH & Co. KG, priority 2006, dated 2014).

This assay concerns the target T1, human vasopressin V1b receptor (Homo sapiens, UniProt P47901).
T1 construct: expressed in transfected cells; host or cells: CHO-K1 (cell line hV1b-3H2_CHO), membrane preparation
T1 sequence (P47901 1-424): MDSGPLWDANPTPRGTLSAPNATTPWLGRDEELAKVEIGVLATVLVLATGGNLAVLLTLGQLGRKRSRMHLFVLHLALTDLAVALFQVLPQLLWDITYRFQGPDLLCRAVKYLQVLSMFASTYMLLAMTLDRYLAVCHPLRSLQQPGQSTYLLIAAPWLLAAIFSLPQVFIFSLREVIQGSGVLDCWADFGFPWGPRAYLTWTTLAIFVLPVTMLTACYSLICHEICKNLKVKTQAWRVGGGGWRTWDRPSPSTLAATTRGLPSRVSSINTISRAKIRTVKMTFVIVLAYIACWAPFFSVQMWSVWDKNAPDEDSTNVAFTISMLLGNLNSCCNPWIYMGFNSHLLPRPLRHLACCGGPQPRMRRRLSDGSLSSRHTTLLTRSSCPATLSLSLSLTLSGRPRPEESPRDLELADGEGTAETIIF
As to the kind of experiment: Vasopressin V1b receptor binding assay. The settings on record: membranes from CHO-K1 cells with stably expressed human V1b receptors; displacement of 1.5 nM 3H-AVP; read-out: V1b receptor affinity (affinity constant Ki). How it is done:
Vasopressin V1b Receptor Binding Assay:
The test substances were dissolved in a concentration of 10^−2 M in DMSO and further diluted to 5×10^−4 M to 5×10^−9 M in DMSO. This series of DMSO predilutions was diluted 1:10 with assay buffer. The substance concentration was again diluted 1:5 in the assay mixture (2% DMSO in the mixture).
The membrane pellet was again homogenized and centrifuged as described and then taken up in 50 mM Tris-HCl, pH 7.4, homogenized and stored in aliquots frozen in liquid nitrogen at −190° C.
The incubation buffer was: 50 mM Tris, 10 mM MgCl2, 0.1% BSA, pH 7.4. […] The nonspecific binding was determined with 1 uM AVP (Bachem #H1780). All determinations were carried out as triplicate determinations. After incubation (60 minutes at room temperature), the free radioligand was removed by vacuum filtration (Skatron cell harvester 7000) through Wathman GF/B glass fiber filter mats, and the filters were transferred into scintillation vials. The liquid scintillation measurement took place in a Tricarb model 2000 or 2200CA instrument (Packard). Conversion of the measured cpm into dpm was carried out with the aid of a standard quench series.
The binding parameters were calculated by nonlinear regression in SAS.
The above assay was used to measure the affinities of the compounds of the invention for the human vasopressin V1b receptor and to determine the affinity constants (Ki).
As to `CCCN1CCN(C2CCN(C(=O)Cn3c(=O)n(S(=O)(=O)c4ccc(OC)cc4)c4ccc(Cl)cc43)C2)CC1` (stereo not shown) [Example 108, 5-Chloro-1-(4-methoxybenzenesulfonyl)-3-{2-oxo-2-[3-(4-propylpiperazin-1-yl)-pyrrolidin-1-yl]-ethyl}-1,3-dihydrobenzimidazol-2-one], the pKi is 5.00 to 6.30.

Take `COc1ccc(S(=O)(=O)n2c(=O)n(C(C(=O)N3CCN(C4CCN(C)CC4)CC3)c3ccccc3)c3ccc(Cl)cc32)cc1` (stereo not shown) [Example 38, 5-Chloro-3-(4-methoxybenzenesulfonyl)-1-{2-[4-(1-methylpiperidin-4-yl)piperazin-1-yl]-2-oxo-1-phenylethyl}-1,3-dihydrobenzimidazol-2-one]: the pKi is 6.30 to 7.00.

Take `COc1ccc(S(=O)(=O)n2c(=O)n(C(C(=O)N3CC[C@H](Nc4ccnc(C)c4)C3)c3ccccc3)c3cc(C#N)ccc32)cc1` (stereo partly drawn) [Example 254, 1-(4-Methoxy-benzenesulfonyl)-3-{2-[(S)-3-(2-methyl-pyridine-4-ylamino)-pyrrolidin-1-yl]-2-oxo-1-phenyl-ethyl}-2-oxo-2,3-dihydro-1H-benzoimidazole-5-carbonitrile; compound with trifluoroacetic acid]: the pKi was 6.30 to 7.00.

For `COc1ccc(S(=O)(=O)n2c(=O)n(CC(=O)N3CCN(C4CCN(C)CC4)CC3)c3cc(Cl)ccc32)cc1` [Example 86, 5-Chloro-1-(4-methoxybenzenesulfonyl)-3-{2-[4-(1-methylpiperidin-4-yl)piperazin-1-yl]-2-oxoethyl}-1,3-dihydrobenzimidazol-2-one], the pKi was 5.00 to 6.30.

Consider `COc1ccc(S(=O)(=O)n2c(=O)n(C(C(=O)N3CCCC(N)C3)c3ccccc3)c3cc(C#N)ccc32)cc1` (stereo not shown) [Example 170, 3-[2-(3-Aminopiperidin-1-yl)-2-oxo-1-phenylethyl]-1-(4-methoxybenzenesulfonyl)-2-oxo-2,3-dihydro-1H-benzimidazole-5-carbonitrile], for which the pKi is 5.00 to 6.30.

`COc1ccc(S(=O)(=O)n2c(=O)n(C(C(=O)N3CCC[C@H](N)C3)c3ccccc3)c3cc(C#N)ccc32)cc1` (stereo partly drawn) [Example 240, 3-[2-((S)-3-Amino-piperidin-1-yl)-2-oxo-1-phenyl-ethyl]-1-(4-methoxybenzenesulfonyl)-2-oxo-2,3-dihydro-1H-benzoimidazole-5-carbonitrile]: the pKi is 6.30 to 7.00.

In the case of `COc1ccc(S(=O)(=O)n2c(=O)n(C(C(=O)NCc3cccnc3)c3ccccc3)c3cc(Cl)ccc32)cc1` (stereo not shown) [Example 112, 2-[6-Chloro-3-(4-methoxybenzenesulfonyl)-2-oxo-2,3-dihydrobenzimidazol-1-yl]-2-phenyl-N-pyridin-3-ylmethylacetamide], the pKi was 5.00 to 6.30.

Turning to `CCCN1CCN(C2CN(C(=O)C(c3ccccc3)n3c(=O)n(S(=O)(=O)c4ccc(OC)cc4)c4ccc(Cl)cc43)C2)CC1` (stereo not shown) [Example 154, 5-Chloro-1-(4-methoxybenzenesulfonyl)-3-{2-oxo-1-phenyl-2-[3-(4-propylpiperazin-1-yl)azetidin-1-yl]ethyl}-1,3-dihydrobenzimidazol-2-one], the pKi is 6.30 to 7.00.

Consider `CCCN1CCN([C@H]2CCCN(C(=O)C(c3ccccc3)n3c(=O)n(S(=O)(=O)c4ccc(OC)cc4)c4ccc(C#N)cc43)C2)CC1` (stereo partly drawn) [Example 191, 1-(4-Methoxybenzenesulfonyl)-2-oxo-3-{2-oxo-1-phenyl-2-[(S)-3-(4-propylpiperazin-1-yl)piperidin-1-yl]ethyl}-2,3-dihydro-1H-benzimidazole-5-carbonitrile], for which the pKi was more than 7.00.

With `CN1CCC(N2CCN(C(=O)C(c3ccccc3)n3c(=O)n(S(=O)(=O)c4ccc(C#N)cc4)c4cc(Cl)ccc43)CC2)CC1` (stereo not shown) [Example 39, 4-(6-Chloro-3-{2-[4-(1-methylpiperidin-4-yl)piperazin-1-yl]-2-oxo-1-phenylethyl}-2-oxo-2,3-dihydrobenzimidazole-1-sulfonyl)benzonitrile], the pKi is 5.00 to 6.30.

As to `CCN1CCC(N[C@H]2CCN(C(=O)C(c3ccccc3)n3c(=O)n(S(=O)(=O)c4ccc(OC)cc4)c4ccc(C#N)cc43)C2)CC1` (stereo partly drawn) [Example 209, 3-{2-[(S)-3-(1-Ethylpiperidin-4-ylamino)pyrrolidin-1-yl]-2-oxo-1-phenylethyl}-1-(4-methoxybenzenesulfonyl)-2-oxo-2,3-dihydro-1H-benzimidazole-5-carbonitrile], the pKi is more than 7.00.

Consider `COc1ccc(S(=O)(=O)n2c(=O)n(C(C(=O)N3CCN(CC4CCCN(C)C4)CC3)c3ccccc3)c3cc(Cl)ccc32)cc1` (stereo not shown) [Example 96, 5-Chloro-1-(4-methoxybenzenesulfonyl)-3-{2-[4-(1-methylpiperidin-3-ylmethyl)piperazin-1-yl]-2-oxo-1-phenylethyl}-1,3-dihydrobenzimidazol-2-one], for which the pKi is 6.30 to 7.00.

For `COc1ccc(S(=O)(=O)n2c(=O)n(C(C(=O)NCCCO)c3ccccc3)c3cc(Cl)ccc32)cc1` (stereo not shown) [Example 121, 2-[6-Chloro-3-(4-methoxybenzenesulfonyl)-2-oxo-2,3-dihydrobenzimidazol-1-yl]-N-(3-hydroxypropyl)-2-phenylacetamide], the pKi is 5.00 to 6.30.

Turning to `COc1ccc(S(=O)(=O)n2c(=O)n(C(C(=O)N3CCC3)c3ccccc3)c3cc(Cl)ccc32)cc1` (stereo not shown) [Example 84, 3-(2-Azetidin-1-yl-2-oxo-1-phenylethyl)-5-chloro-1-(4-methoxybenzenesulfonyl)-1,3-dihydrobenzimidazol-2-one], the pKi was 5.00 to 6.30.

For the molecule `COc1ccc(S(=O)(=O)n2c(=O)n(C(C(=O)Nc3ccccc3)c3ccccc3)c3cc(Cl)ccc32)cc1` (stereo not shown) [Example 103, 2-[6-Chloro-3-(4-methoxybenzenesulfonyl)-2-oxo-2,3-dihydrobenzimidazol-1-yl]-2,N-diphenylacetamide], the pKi was 5.00 to 6.30.

`COc1ccc(S(=O)(=O)n2c(=O)n(C(Cc3ccccc3)C(=O)N3CCN(c4ccncc4)CC3)c3cc(Cl)ccc32)cc1` (stereo not shown) [Example 27, 3-[1-Benzyl-2-oxo-2-(4-pyridin-4-ylpiperazin-1-yl)ethyl]-5-chloro-1-(4-methoxybenzenesulfonyl)-1,3-dihydrobenzimidazol-2-one]: the pKi was 6.30 to 7.00.

Take `CCN1CCN([C@H]2CCCN(C(=O)C(c3ccccc3)n3c(=O)n(S(=O)(=O)c4ccc(OC)cc4)c4ccc(C#N)cc43)C2)CC1` (stereo partly drawn) [Example 231, 3-{2-[(S)-3-(4-Ethyl-piperazin-1-yl)-piperidin-1-yl]-2-oxo-1-phenyl-ethyl}-1-(4-methoxy-benzenesulfonyl)-2-oxo-2,3-dihydro-1H-benzoimidazole-5-carbonitrile; compound with trifluoroacetic acid]: the pKi was more than 7.00.

As to `COc1ccc(S(=O)(=O)n2c(=O)n(C(C(=O)N3CCN(c4ccccn4)CC3)c3ccccc3)c3cc(Cl)ccc32)cc1` (stereo not shown) [Example 82, 5-Chloro-1-(4-methoxybenzenesulfonyl)-3-[2-oxo-1-phenyl-2-(4-pyridin-2-ylpiperazin-1-yl)ethyl]-1,3-dihydrobenzimidazol-2-one], the pKi is 5.00 to 6.30.

As to `COc1ccc(S(=O)(=O)n2c(=O)n(C(C(=O)N3CC[C@@H](N)C3)c3ccccc3)c3cc(Cl)ccc32)cc1` (stereo partly drawn) [Example 169, 3-[2-((R)-3-Aminopyrrolidin-1-yl)-2-oxo-1-phenylethyl]-5-chloro-1-(4-methoxybenzenesulfonyl)-1,3-dihydrobenzimidazol-2-one], the pKi is 5.00 to 6.30.

With `COc1ccc(S(=O)(=O)n2c(=O)n(C(C(=O)N3CCC(N4CCN(C)CC4)CC3)c3ccccc3)c3cc(Cl)ccc32)c(OC)c1` (stereo not shown) [Example 63, 5-Chloro-1-(2,4-dimethoxybenzenesulfonyl)-3-{2-[4-(4-methylpiperazin-1-yl)piperidin-1-yl]-2-oxo-1-phenylethyl}-1,3-dihydrobenzimidazol-2-one], the pKi was 6.30 to 7.00.

Consider `COc1ccc(S(=O)(=O)n2c(=O)n(C(C(=O)N3CC[C@H](NC4CCNCC4)C3)c3ccccc3)c3cc(Cl)ccc32)cc1` (stereo partly drawn) [Example 177, 5-Chloro-1-(4-methoxybenzenesulfonyl)-3-{2-oxo-1-phenyl-2-[(S)-3-(piperidin-4-ylamino)pyrrolidin-1-yl]ethyl}-1,3-dihydrobenzimidazol-2-one], for which the pKi is more than 7.00.

For the molecule `CCCN1CCN([C@H]2CCN(C(=O)C(c3ccccc3)n3c(=O)n(S(=O)(=O)c4ccc(OC)cc4)c4ccc(C#N)cc43)C2)CC1` (stereo partly drawn) [Example 161, 1-(4-Methoxybenzenesulfonyl)-2-oxo-3-{2-oxo-1-phenyl-2-[(S)-3-(4-propylpiperazin-1-yl)pyrrolidin-1-yl]ethyl}-2,3-dihydro-1H-benzimidazole-5-carbonitrile], the pKi was more than 7.00.

Usually pKi stands for the Ki on a negative log10 scale, so that one unit is a factor of ten.
